Source: ChEMBL document CHEMBL5634112, “Synthesis and biological evaluation of fluoroquinolones containing a pyridoxine derivatives moiety” (Eur J Med Chem, 2023)
≈ marks a conversion by molar mass, not a printed value.

How the values were obtained:
Staphylococcus aureus [1] = experiment: Antibacterial activity against clinical isolate methicillin resistant Staphylococcus aureus 4771 assessed as reduction in microbial growth incubated for 24 hrs by broth microdilution method; format: functional
[2] = test system: Staphylococcus haemolyticus; experiment: Antibacterial activity against clinical isolate Staphylococcus haemolyticus NKC 31/2 assessed as reduction in microbial growth incubated for 24 hrs by broth microdilution method; format: functional
[3] = Cytotoxicity against human HSF assessed as reduction in cell viability incubated for 72 hrs by MTT assay; format: toxicity, cell-based; conditions: HSF cells
Klebsiella pneumoniae = experiment: Antibacterial activity against clinical isolate Klebsiella pneumoniae 1678 assessed as reduction in microbial growth incubated for 24 hrs by broth microdilution method; format: functional
Escherichia coli [4] = experiment: Antibacterial activity against Escherichia coli ATCC 25922 assessed as reduction in microbial growth incubated for 24 hrs by broth microdilution method; format: functional
Micrococcus luteus = experiment: Antibacterial activity against clinical isolate Micrococcus luteus assessed as reduction in microbial growth incubated for 24 hrs by broth microdilution method; format: functional
Salmonella typhimurium = experiment: Antibacterial activity against Salmonella typhimurium TA100 assessed as reduction in microbial growth incubated for 24 hrs by broth microdilution method; format: functional, Salmonella enterica subsp. enterica serovar Typhimurium; conditions: Salmonella enterica
Staphylococcus aureus [5] = experiment: Antibacterial activity against methicillin sensitive Staphylococcus aureus ATCC 29213 assessed as reduction in microbial growth incubated for 24 hrs by broth microdilution method; format: functional
Pseudomonas aeruginosa [6] = experiment: Antibacterial activity against Pseudomonas aeruginosa ATCC 27853 assessed as reduction in microbial growth incubated for 24 hrs by broth microdilution method; format: functional
Enterococcus faecalis = experiment: Antibacterial activity against clinical isolate Enterococcus faecalis 1465 assessed as reduction in microbial growth incubated for 24 hrs by broth microdilution method; format: functional
[7] = Cytotoxicity against human CHL assessed as reduction in cell viability incubated for 72 hrs by MTT assay; format: toxicity, cell-based; conditions: CHL cells
[8] = test system: Staphylococcus auricularis; experiment: Antibacterial activity against clinical isolate Staphylococcus auricularis NKC 7 assessed as reduction in microbial growth incubated for 24 hrs by broth microdilution method; format: functional
Pseudomonas aeruginosa [9] = experiment: Antibacterial activity against clinical isolate Pseudomonas aeruginosa NKC 17 assessed as reduction in microbial growth incubated for 24 hrs by broth microdilution method; format: functional
[10] = Cytotoxicity against human MSC assessed as reduction in cell viability incubated for 72 hrs by MTT assay; format: toxicity, cell-based; conditions: MSC cells
Staphylococcus aureus [11] = experiment: Antibacterial activity against clinical isolate Staphylococcus aureus 1812 assessed as reduction in microbial growth incubated for 24 hrs by broth microdilution method; format: functional
Escherichia coli [12] = experiment: Antibacterial activity against clinical isolate Escherichia coli NKC 1 assessed as reduction in microbial growth incubated for 24 hrs by broth microdilution method; format: functional
Klebsiella aerogenes = experiment: Antibacterial activity against clinical isolate Enterobacter aerogenes NKC 8 assessed as reduction in microbial growth incubated for 24 hrs by broth microdilution method; format: functional
Bacillus subtilis = experiment: Antibacterial activity against Bacillus subtilis 168 assessed as reduction in microbial growth incubated for 24 hrs by broth microdilution method; format: functional
[13] = test system: Staphylococcus epidermidis; experiment: Antibacterial activity against clinical isolate Staphylococcus epidermidis NKC 37/1 assessed as reduction in microbial growth incubated for 24 hrs by broth microdilution method; format: functional
Cedecea davisae = experiment: Antibacterial activity against clinical isolate Cedecea davisae 1813 assessed as reduction in microbial growth incubated for 24 hrs by broth microdilution method; format: functional
Staphylococcus aureus [14] = experiment: Antibacterial activity against clinical isolate Staphylococcus aureus 4721 assessed as reduction in microbial growth incubated for 24 hrs by broth microdilution method; format: functional
[15] = test system: Staphylococcus haemolyticus; experiment: Antibacterial activity against clinical isolate Staphylococcus haemolyticus 1464 assessed as reduction in microbial growth incubated for 24 hrs by broth microdilution method; format: functional
[16] = test system: Staphylococcus epidermidis; experiment: Antibacterial activity against clinical isolate Staphylococcus epidermidis assessed as reduction in microbial growth incubated for 24 hrs by broth microdilution method; format: functional

Compound | MIC (Staphylococcus aureus [1]) [µg/mL] | MIC [2] [µg/mL] | CC50 at 72 h [3] [µg/mL] | MIC (Klebsiella pneumoniae) [µg/mL] | MIC (Escherichia coli [4]) [µg/mL] | MIC (Micrococcus luteus) [µg/mL] | MIC (Salmonella typhimurium) [µg/mL] | MIC (Staphylococcus aureus [5]) [µg/mL] | MIC (Pseudomonas aeruginosa [6]) [µg/mL] | MIC (Enterococcus faecalis) [µg/mL] | CC50 at 72 h [7] [µg/mL] | MIC [8] [µg/mL] | MIC (Pseudomonas aeruginosa [9]) [µg/mL] | CC50 at 72 h [10] [µg/mL] | MIC (Staphylococcus aureus [11]) [µg/mL] | MIC (Escherichia coli [12]) [µg/mL] | MIC (Klebsiella aerogenes) [µg/mL] | MIC (Bacillus subtilis) [µg/mL] | MIC [13] [µg/mL] | MIC (Cedecea davisae) [µg/mL] | also measured
COc1c(N2C[C@@H]3CCCN(Cc4cnc(C)c(O)c4CO)[C@@H]3C2)c(F)cc2c(=O)c(C(=O)O)cn(C3CC3)c12.Cl | 0.13 | 8 | 56.7 | > 64 | > 64 | 4 | 4 | 2 | > 64 | 1 | 18.6 | 0.03 | 64 | 48.4 | 0.25 | 4 | 8 | 2 | 0.06 | 0.13 | MIC (Staphylococcus aureus [14]): 0.13 µg/mL; MIC [15]: 0.13 µg/mL; MIC [16]: 2 µg/mL
COc1c(N2C[C@@H]3CCCN(Cc4nc(C)c5c(c4CO)COC(C)(C)O5)[C@@H]3C2)c(F)cc2c(=O)c(C(=O)O)cn(C3CC3)c12 | 1 | 32 | 11.3 (≈ 18.1 µM) | 64 | > 64 | 2 | 2 | 2 | > 64 | 16 | 6.41 (≈ 10.3 µM) | 0.03 | > 64 | 7.26 (≈ 11.7 µM) | 2 | 8 | 16 | 2 | 2 | 0.5 | MIC (Staphylococcus aureus [14]): 1 µg/mL; MIC [15]: 1 µg/mL; MIC [16]: 4 µg/mL
COc1c(N2C[C@@H]3CCCN(Cc4nc(C)c(O)c(CO)c4CO)[C@@H]3C2)c(F)cc2c(=O)c(C(=O)O)cn(C3CC3)c12.Cl | 0.25 | 8 | 33.9 | 64 | > 64 | 2 | 2 | 2 | > 64 | 4 | 24.2 | 0.03 | 32 | 31.7 | 0.5 | 2 | 4 | 2 | 0.25 | 0.25 | MIC (Staphylococcus aureus [14]): 0.5 µg/mL; MIC [15]: 0.5 µg/mL; MIC [16]: 2 µg/mL
Cc1nc(CO)c(CN2CCN(c3cc4c(cc3F)c(=O)c(C(=O)O)cn4C3CC3)CC2)c(CO)c1O.Cl | 2 | 16 | 38 | 8 | 64 | 2 | 4 | 0.5 | > 64 | 32 | 31.8 | 0.25 | 16 | 52.6 | 4 | 0.5 | 2 | 4 | 1 | 1 | MIC (Staphylococcus aureus [14]): 2 µg/mL; MIC [15]: 4 µg/mL; MIC [16]: 8 µg/mL
COc1c(N2C[C@@H]3CCCN(Cc4cnc(C)c5c4COCO5)[C@@H]3C2)c(F)cc2c(=O)c(C(=O)O)cn(C3CC3)c12.Cl | 0.03 | 1 | 5.8 | > 64 | 2 | 8 | 2 | 2 | 64 | 1 | 2.34 | 0.03 | > 64 | 9.62 | 0.06 | 4 | > 64 | 2 | 0.03 | 0.03 | MIC (Staphylococcus aureus [14]): 0.03 µg/mL; MIC [15]: 0.03 µg/mL; MIC [16]: 16 µg/mL
CCn1cc(C(=O)O)c(=O)c2cc(F)c(N3CCNCC3)cc21 [NORFLOXACIN] | 1 | 8 | 38.1 (≈ 119 µM) | 1 | 1 | 8 | 1 | 2 | 4 | > 64 | 38.1 (≈ 119 µM) | 0.13 | 0.25 | 29.3 (≈ 91.9 µM) | 2 | 0.06 | 1 | 1 | 4 | 1 | MIC (Staphylococcus aureus [14]): 1 µg/mL; MIC [15]: 2 µg/mL; MIC [16]: 1 µg/mL
CCn1cc(C(=O)O)c(=O)c2cc(F)c(N3CCN(Cc4cnc(C)c5c4COCO5)CC3)cc21.Cl | 1 | 8 | 23.4 | 4 | 4 | 4 | 2 | 2 | > 64 | 32 | 9.78 | 0.03 | 2 | 21.2 | 2 | 0.13 | 1 | 2 | 2 | 0.25 | MIC (Staphylococcus aureus [14]): 1 µg/mL; MIC [15]: 1 µg/mL; MIC [16]: 2 µg/mL
CCn1cc(C(=O)O)c(=O)c2cc(F)c(N3CCNC(C)C3)c(F)c21 (centres undefined) [LOMEFLOXACIN] | 1 | 8 | 46.2 (≈ 131 µM) | 1 | 1 | 1 | 1 | 0.5 | 4 | > 64 | 31.3 (≈ 89.1 µM) | 0.06 | 1 | 35.7 (≈ 102 µM) | 2 | 0.06 | 1 | 0.5 | 2 | 0.25 | MIC (Staphylococcus aureus [14]): 1 µg/mL; MIC [15]: 0.5 µg/mL; MIC [16]: 2 µg/mL
